Assay results from US20250340556A1, “PYRIMIDOPYRIMIDONE COMPOUNDS AND METHODS OF USE THEREOF” (Soltego, Inc., priority 2022, published 2025).
Like-named read-outs stand apart in the source and are kept apart here.

Key:
SIK1 = SIK1 (Homo sapiens (Human), UniProt P57059); test: cell-based
SIK3 (h) = SIK3 (h) (Homo sapiens (Human), UniProt Q9Y2K2); test: SIK3 kinase activity, Eurofins KinaseProfiler ([γ-33P]-ATP filter assay); format: biochemical
Description: (§1) SIK1, 2 and 3 kinase activity was assessed using a Eurofins Cerep S.A. (‘Eurofins’) KinaseProfiler. All compounds were prepared to 50× final assay concentration in 100% DMSO. This working stock of the compound was added to the assay well as the first component in the reaction, followed by the remaining components as detailed in the general assay protocols below. In the standard KinaseProfiler service, there is no pre-incubation step between the compound and the kinase prior to initiation of the reaction. The positive control well contains all components of the reaction, except the compound of interest; however, DMSO (at a final concentration of 2%) is included in these wells to control for solvent effects. The blank wells contain all components of the reaction, with a reference inhibitor replacing the compound of interest. This abolishes kinase activity and establishes the base-line (0% kinase activity remaining).
(§2) SIK3 (h) was incubated with 8 mM MOPS pH 7.0, 0.2 mM EDTA, 100 μM […], 10 mM Magnesium acetate and [γ-33P-ATP](specific activity and concentration as required). The reaction was initiated by the addition of the Mg/ATP mix. After incubation for 40 minutes at room temperature, the reaction is stopped by the addition of phosphoric acid to a concentration of 0.5%, 10 LL of the reaction was then spotted onto a P30 filtermat and washed four times for 4 minutes in 0.425% phosphoric acid and once in methanol prior to drying and scintillation counting.

SIK (h) / SIK1 = SIK (h) / SIK1 (Homo sapiens (Human), UniProt P57059); test: SIK1 kinase activity, Eurofins KinaseProfiler ([γ-33P]-ATP filter assay); format: biochemical
Description: as §1
as §2, with “SIK” for “SIK3”, “[γ-33P]-ATP (specific” for “[γ-33P-ATP](specific”, “was” for “is”, “μL” for “LL”

SIK2 (h) = SIK2 (h) (Homo sapiens (Human), UniProt Q9H0K1); test: SIK2 kinase activity, Eurofins KinaseProfiler ([γ-33P]-ATP filter assay); format: biochemical
Description: as §1
as §2, with “SIK2” for “SIK3”, “was” for “is”, “μL” for “LL”

[1] = ester bond
[2] = system: living human skin explants; test: Cell viability of living human skin explants, Masson's trichrome staining (Example 8); format: cell-based; settings: 1% topical in vehicle E
Description: All the tested products were diluted in the vehicle noted as E (Ethanol 65%, Propylene glycol 25%, Transcutol 10%). The diluted solutions were stored at 4° C. within the study period. 36 human skin explants of an average diameter of 11 mm (+1 mm) were prepared on an abdoplasty coming from a person (reference: P2462-AB53) with a III phototype. The explants were kept in survival in BEM culture medium (BIO-EC's Explants Medium) at 37° C. in a humid, 5%-CO2 atmosphere. Study is performed on human skin tissue, obtained from surgical residues in full respect with the Declaration of Helsinki and the article L. 1243-4 of the French Public Health Code.
The excipient E and the tested products were applied topically at a rate of 2 μL per 1 cm^2 explant (˜2 mg/cm^2) and spread and gently rubbed for 10 seconds using a small spatula on day 0 (DO), D3, D5, D7 and D10. […] The culture medium was half renewed (1 ml per well) on D3, D5, D7 and D10. On D0, D3, D4, D5, D6, D7 and D10, the culture media of the irradiated explants (UV) were replaced by HBSS (Hank's Balanced Saline Solution; 1 ml per explant). Then, the explants of the “UV” batch were irradiated using a UV simulator Vibert Lourmat RMX 3W with a dose of 2.25 J/cm^2 of UVA (with 6-8% of UVB) corresponding to 0.5 MED (minimal erythemal dose) on a skin with a III phototype. At the end of the UV irradiation, the explants form the batch TUV were put back in 2 mL of BEM medium. On D0, the 3 explants from the batch TO were collected and cut in two parts. Half was fixed in buffered formalin solution and half was frozen at −80° C. On D10, 3 explants from the concerned batches were collected and treated in the same way than in DO. According to the dispositions mentioned in the study plan, the days of treatments, irradiations and sampling were adjusted to the schedule of working days. After fixation for 24 hours in buffered formalin, the samples were dehydrated and impregnated in paraffin using a Leica PEARL dehydration automat. The samples were embedded using a Leica EG 1160 embedding station. 5-μm-thick sections were made using a Leica RM 2125 Minot-type microtome, and the sections were mounted on Superfrost® histological glass slides. The frozen samples were cut into 7-μm-thick sections using a Leica CM 3050 cryostat. Sections were then mounted on Superfrost®, plus silanized glass slides. The microscopical observations were realized using a Leica DMLB or Olympus BX43 microscope. Pictures were digitized with a numeric DP72 Olympus camera with CellSens storing software.
The cell viability of the epidermal and dermal structures was assessed by microscopical observation of formalin-fixed paraffin-embedded (FFPE) skin sections after Masson's trichrome staining, Goldner variant.

B16 4A5 cells = test: B16 4A5 cell viability, MTS assay; format: cell-based, mouse; settings: 72 h
Description: B16 4A5 cells were seeded in 24-well plates at 20,000 cells/well, 24 h before the beginning of the treatment with test compounds at 5 concentrations, in triplicates (n=3). […] Additionally, DMSO at 0.1%, used for solubilization of the test compounds, was tested in parallel. The treatments were performed in culture medium containing only 1% of FBS. […] The effects of the compounds on B16 4A5 viability was assessed. To this purpose, cells were incubated during 72 h with 5 concentrations of the compounds, were left untreated, treated with SDS or with DMSO 0.1%.

[3] = Table 5, macrocycle precursors, read-out: IC50 nM SIK2
[4] = Table 6, macrocycles, read-out: IC50 nM SIK2

Chain of SIK1 (P57059 whole entry): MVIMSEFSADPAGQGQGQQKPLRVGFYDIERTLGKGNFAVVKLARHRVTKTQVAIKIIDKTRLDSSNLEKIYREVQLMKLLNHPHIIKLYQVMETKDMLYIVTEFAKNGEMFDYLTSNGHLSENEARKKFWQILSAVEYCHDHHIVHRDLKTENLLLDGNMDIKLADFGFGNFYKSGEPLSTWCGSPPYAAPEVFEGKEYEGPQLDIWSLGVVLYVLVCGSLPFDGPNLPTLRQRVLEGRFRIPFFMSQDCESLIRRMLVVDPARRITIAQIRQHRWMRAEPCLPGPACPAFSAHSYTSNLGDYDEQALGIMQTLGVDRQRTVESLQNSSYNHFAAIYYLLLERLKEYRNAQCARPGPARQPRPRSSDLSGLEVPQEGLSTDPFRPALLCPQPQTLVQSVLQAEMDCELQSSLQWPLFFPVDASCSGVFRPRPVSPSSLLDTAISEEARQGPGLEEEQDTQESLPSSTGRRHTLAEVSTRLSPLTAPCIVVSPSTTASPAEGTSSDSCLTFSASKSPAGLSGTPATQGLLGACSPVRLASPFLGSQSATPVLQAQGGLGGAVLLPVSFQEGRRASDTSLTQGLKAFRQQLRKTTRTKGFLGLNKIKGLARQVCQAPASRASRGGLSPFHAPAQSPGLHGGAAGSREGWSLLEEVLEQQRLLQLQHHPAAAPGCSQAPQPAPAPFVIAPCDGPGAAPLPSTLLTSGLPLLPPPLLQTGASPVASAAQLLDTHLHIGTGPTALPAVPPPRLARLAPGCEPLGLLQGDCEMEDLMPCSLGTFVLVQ

Cc1cccc(C)c1N1Cc2cnc(Nc3ccc(N4CCN(C)CC4)c(CO)c3)nc2N(CCCCC(=O)O)C1=O [SLT-027]
EC50 (SIK1): 408 nM | IC50 (SIK3 (h); Table 5, macrocycle precursors): 21 nM | IC50 (SIK (h) / SIK1; Table 5, macrocycle precursors): 2 nM | IC50 (SIK2 (h); [3]): 5 nM

Cc1cccc(C)c1N1Cc2cnc3nc2N(C/C=C/CCOC(=O)c2cc(ccc2N2CCN(C)CC2)N3)C1=O [SLT-079]
IC50 (SIK2 (h); [4]): 1 nM

COc1cc(Br)c2cc1Nc1ncc3c(n1)N(CCCC(=O)OC2)C(=O)N(c1c(C)cccc1C)C3 [SLT-058]
ring closure, isolated yield ([1]; from COc1cc(Br)c(CO)cc1Nc1ncc2c(n1)N(CCCC(=O)O)C(=O)N(c1c(C)cccc1C)C2, 14-membered ring, DCC/DMAP/3A MS, DCM/DMF, 4.96 mM, 25.0 °C, 16.0 h): 20% | IC50 (SIK3 (h); Table 6, macrocycles): 339 nM | IC50 (SIK (h) / SIK1; Table 6, macrocycles): 26 nM | IC50 (SIK2 (h); [4]): 201 nM

Cc1cccc(C)c1N1Cc2cnc3nc2N(C/C=C/CC(=O)OCc2cc(ccc2N2CCN(C)CC2)N3)C1=O [SLT-061]
IC50 (SIK2 (h); [4]): 2 nM

Cc1cccc(C)c1N1Cc2cnc3nc2N(CCCCCOC(=O)c2cc(ccc2N2CCN(C)CC2)N3)C1=O [SLT-038]
EC50 (SIK1): 4.37 nM | ring closure, isolated yield ([1]; from Cc1cccc(C)c1N1Cc2cnc(Nc3ccc(N4CCN(C)CC4)c(C(=O)O)c3)nc2N(CCCCCO)C1=O, 15-membered ring, 2,4,6-trichlorobenzoyl chloride/TEA, DMAP, toluene/DMF, 5.0 mM, 110.0 °C, 16.0 h): 6% | IC50 (SIK2 (h); [4]): 1 nM

Cc1cccc(C)c1N1Cc2cnc3nc2N(CCCOC(=O)c2cc(ccc2N2CCN(C)CC2)N3)C1=O [SLT-041]
EC50 (SIK1): 10.5 nM | ring closure, isolated yield ([1]; from Cc1cccc(C)c1N1Cc2cnc(Nc3ccc(N4CCN(C)CC4)c(C(=O)O)c3)nc2N(CCCO)C1=O, 13-membered ring, EDC.HCl/HOBt/DMAP/3A MS, DCM, 7.99 mM, 50.0 °C, 16.0 h): 30%

Cc1cccc(C)c1N1Cc2cnc3nc2N(C/C=C\C(=O)OCc2cc(ccc2N2CCN(C)CC2)N3)C1=O [SLT-073]
IC50 (SIK2 (h)): 0.7 nM

Cc1cccc(C)c1N1Cc2cnc3nc2N(CCCCOC(=O)Cc2cc(ccc2N2CCN(C)CC2)N3)C1=O [SLT-059]
ring closure, isolated yield ([1]; from Cc1cccc(C)c1N1Cc2cnc(Nc3ccc(N4CCN(C)CC4)c(CC(=O)O)c3)nc2N(CCCCO)C1=O, 15-membered ring, 2,4,6-trichlorobenzoyl chloride/TEA, DMAP, toluene/DMF, 5.0 mM, 110.0 °C, 16.0 h): 13% | IC50 (SIK (h) / SIK1; Table 6, macrocycles): 286 nM | IC50 (SIK2 (h)): > 500 nM | IC50 (SIK2 (h); [4]): 250 nM

Cc1cccc(C)c1N1Cc2cnc(Nc3ccc(N4CCN(C)CC4)c(CO)c3)nc2N(CCCC(=O)O)C1=O [SLT-025]
IC50 (SIK3 (h); Table 5, macrocycle precursors): 21 nM | IC50 (SIK (h) / SIK1; Table 5, macrocycle precursors): 3 nM | IC50 (SIK2 (h); [3]): 6 nM

Cc1cccc(C)c1N1Cc2cnc3nc2N(CCCCC(=O)OCc2cc(ccc2N2CCN(C)CC2)N3)C1=O [SLT-033]
EC50 (SIK1): 6.08 nM | ring closure, isolated yield ([1]; from Cc1cccc(C)c1N1Cc2cnc(Nc3ccc(N4CCN(C)CC4)c(CO)c3)nc2N(CCCCC(=O)O)C1=O, 15-membered ring, DCC/DMAP/3A MS, DCM/DMF, 7.69 mM, 25.0 °C): 14% | IC50 (SIK2 (h); [4]): 0.8 nM

Cc1cccc(C)c1N1Cc2cnc3nc2N(CCC(=O)OCc2cc(ccc2N2CCN(C)CC2)N3)C1=O [SLT-023]
EC50 (SIK1): 86.6 nM | cell viability of epidermal and dermal structures [2]: very slightly decreased | ring closure, isolated yield ([1]; from Cc1cccc(C)c1N1Cc2cnc(Nc3ccc(N4CCN(C)CC4)c(CO)c3)nc2N(CCC(=O)O)C1=O, 13-membered ring, EDC.HCl/HOBt/DMAP/3A MS, DCM, 8.04 mM, 25.0 °C, 16.0 h): 33% | IC50 (SIK3 (h); Table 6, macrocycles): 18 nM | cell viability (B16 4A5 cells; 0.7 μg/mL, compared with DMSO 0.1% control): slightly decreased | viability of cells (B16 4A5 cells; 5 μg/mL, compared with DMSO 0.1% control): slightly diminished | IC50 (SIK (h) / SIK1; Table 6, macrocycles): 3 nM | IC50 (SIK2 (h); [4]): 3 nM

Cc1cccc(C)c1N1Cc2cnc3nc2N(CCCOC(=O)C(C)c2cc(ccc2N2CCN(C)CC2)N3)C1=O (centres unmarked) [SLT-071]
IC50 (SIK2 (h); [4]): 3 nM

COC(=O)CCCN1C(=O)N(c2c(C)cccc2C)Cc2cnc(Nc3ccc(N4CCN(C)CC4)c(CO)c3)nc21 [SLT-019]
IC50 (SIK3 (h); Table 5, macrocycle precursors): 8 nM | IC50 (SIK (h) / SIK1; Table 5, macrocycle precursors): 2 nM | IC50 (SIK2 (h); [3]): 3 nM

Cc1cccc(C)c1N1Cc2cnc(Nc3ccc(N4CCN(C)CC4)c(CO)c3)nc2N(CCC(=O)O)C1=O [SLT-020]
IC50 (SIK3 (h); Table 5, macrocycle precursors): 43 nM | IC50 (SIK (h) / SIK1; Table 5, macrocycle precursors): 5 nM | IC50 (SIK2 (h); [3]): 10 nM

COc1cc(F)c2cc1Nc1ncc3c(n1)N(CCCC(=O)OC2)C(=O)N(c1c(C)cccc1C)C3
ring closure, isolated yield ([1]; from COc1cc(F)c(CO)cc1Nc1ncc2c(n1)N(CCCC(=O)O)C(=O)N(c1c(C)cccc1C)C2, 14-membered ring, DCC/DMAP/3A MS, DCM/DMF, 6.89 mM, 25.0 °C, 16.0 h): 57%

Cc1cccc(C)c1N1Cc2cnc3nc2N(C/C=C/COC(=O)Cc2cc(ccc2N2CCN(C)CC2)N3)C1=O [SLT-068]
IC50 (SIK2 (h); [4]): 17 nM

Cc1cccc(C)c1N1Cc2cnc3nc2N(C/C=C\CC(=O)OCc2cc(ccc2N2CCN(C)CC2)N3)C1=O [SLT-062]
IC50 (SIK2 (h)): 0.8 nM

COc1cc(N2CCN(C)CC2)c2cc1Nc1ncc3c(n1)N(CCCC(=O)OC2)C(=O)N(c1c(C)cccc1C)C3
ring closure, isolated yield ([1]; from COc1cc(N2CCN(C)CC2)c(CO)cc1Nc1ncc2c(n1)N(CCCC(=O)O)C(=O)N(c1c(C)cccc1C)C2, 14-membered ring, DCC/DMAP/3A MS, DCM/DMF, 6.69 mM, 25.0 °C, 16.0 h): 6%

CCCCCCCCCCCCOS(=O)(=O)[O-].[Na+] [SDS, reference compound]
viability of cells (B16 4A5 cells; SDS 0.05%, compared to untreated cells): strongly and significantly diminished

Cc1cccc(C)c1N1Cc2cnc3nc2N(CCCCOC(=O)C(C)c2cc(ccc2N2CCN(C)CC2)N3)C1=O (centres unmarked) [SLT-070]
IC50 (SIK2 (h); [4]): 2 nM
